Measured values from patent US6355628B1, “Combination therapy using pentafluorobenzenesulfonamides” (priority 1999, dated 2002).

What was measured:
[1] = system: MX-1 human mammary tumor xenografts; assay: MX-1 human mammary tumor xenografts in athymic nude mice, tumor growth; assay type: in vivo
[2] = system: various tumor cell lines; assay: Growth and clonogenic potential of tumor cell lines in culture; assay type: cell-based
[3] = Weight loss and mortality in MX-1 xenograft study; assay type: in vivo, athymic nude mice; conditions: efficacious dose, administered alone
Experimental: Its activity is not affected by the multidrug resistance (MDR) phenotype.
Administration of suboptimal doses of 3 mg/kg cisplatin i.v. bolus or 15 mg/kg/hr compound 1 i.v. infusion for 4 hours was compared with the efficacy of coadministration against MX-1 tumors.

[4] = system: β-tubulin; assay: Tubulin polymerization / binding to β-tubulin; assay type: biochemical; conditions: by covalently binding to β-tubulin

COc1ccc(NS(=O)(=O)c2c(F)c(F)c(F)c(F)c2F)cc1F.[Na] [Compound 1, 2-Fluoro-1-methoxy-4-(pentafluorophenylsulfonamido)benzene, sodium salt]
inhibiting the growth of MX-1 xenografts, single agent ([1]; 30 mg/kg/hr infused i.v. for 4 hours): very effective
activity versus multidrug resistance (MDR) phenotype [2]: not affected
growth and clonogenic potential of various tumor cell lines in culture [2]: inhibits the growth and clonogenic potential
body weight loss accompanying efficacy, single agent [3]: accompanied by body weight loss
tubulin polymerization [4]: prevents tubulin polymerization

N.N.[Cl][Pt][Cl] [Cisplatin, cis-diaminedichloroplatinum (II), reference compound]
efficacy against MX-1 tumor, single agent ([1]; efficacious dose, not stated): very efficacious
body weight loss accompanying efficacy, single agent [3]: accompanied by body weight loss
